What all share (experiment): NCI-60 cell line screen, 48 h
The test system of assay [1] is HT29 colon.
In assay [2] the test system is M14 melanoma.
In assay [3] the test system is MALME-3M melanoma.
Assay [4] concerns RPMI-8226 leukemia.
Assay [5] has as its system HCT-116 colon.
The subject of assay [6] is SW-620 colon.
Assay [7] concerns SF-539 CNS.
Assay [8] concerns OVCAR-5 ovarian.
Assay [9] deals with NCI-H522 lung.
Assay [10] relates to T-47D breast.

Molecules are shown by their SMILES.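 Exposure lasted 48 hours, with cells grown in 96-well plates and compounds tested at five concentrations. GI50 marks 50% less growth. TGI: total growth inhibition.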

For `O=C1CCCC2=C1CC1=C(CCCC1=O)N2c1ccc(Cl)cc1`, the TGI in assay [1], in assay [2], in [3], in [4], in [5] and in assay [6] was more than 100 µM throughout. In addition, the TGI in [7] and in assay [8] was more than 100 µM each time.

As to `CN(c1cccc(C(=O)O)c1)c1cc(O/N=[N+](\[O-])N(C)C)c([N+](=O)[O-])cc1[N+](=O)[O-]`, the GI50 in assay [1], in [4], in assay [5], in assay [6], in assay [7] and in assay [8] was more than 100 µM in each case. In addition, the GI50 in assay [9] is more than 100 µM. Further, the TGI in [1], in [4], in assay [5], in assay [6], in assay [7] and in assay [8] was more than 100 µM throughout. The TGI in assay [9] was more than 100 µM.

Take `O=S(=O)(F)Cc1ccccc1`: the TGI was more than 100 µM in assay [1]; more than 100 µM in [2]; 70 µM in [3]; more than 100 µM in assay [4]; more than 100 µM in assay [5]; more than 100 µM in assay [6]. In addition, the TGI in assay [7], in assay [8] and in [9] was more than 100 µM each time.

As for `COC1CCCc2c(OC(C)=O)ccc(OC(C)=O)c21` (stereo not drawn), the TGI in [2], in assay [3], in assay [5], in [6] and in assay [8] was more than 100 µM in each case.

In the case of `Cn1cc(-c2ccc3c4ccccc4n(C)c3c2)c2ccccc21`, the TGI in assay [1], in assay [2], in assay [3], in [4], in assay [5] and in assay [6] was more than 100 µM in each case. Also, the TGI in assay [7], in assay [8] and in assay [9] was more than 100 µM each time.

For the molecule `O=C(Nc1cc(Cl)c(I)c(Cl)c1)C(F)(F)F`, the TGI is 37.4 µM in assay [1]; 60.3 µM in assay [2]; more than 100 µM in [4]; 71.2 µM in [5]; more than 100 µM in assay [6]; 83 µM in assay [8]. For the same molecule, the TGI in assay [10] came out at 97.6 µM; in assay [9], 42.2 µM.

Take `N.N.N.N.N#N.N#N.[Cl-].[Os+6]`: the GI50 in assay [2], in assay [3], in [4], in assay [5], in [6] and in assay [7] was more than 100 µM throughout. In addition, the GI50 in [8] and in [9] was more than 100 µM each time. The TGI in assay [2], in assay [3], in [4], in [5], in assay [6] and in assay [7] was more than 100 µM each time. Further, the TGI in assay [8] and in assay [9] was more than 100 µM in each case.

In the case of `CNc1c2ccccc2nc2occ(Cl)c12`, the GI50 is 37.2 µM in assay [2]; 25.1 µM in assay [3]; 16 µM in assay [4]; 17.1 µM in assay [5]; 47 µM in assay [8]; 66.1 µM in assay [10]. For the same molecule, the GI50 in [9] was 80.3 µM. Further, the TGI in assay [2] was more than 100 µM; in assay [3], 59.5 µM; in assay [4], 39.8 µM; in assay [5] it was 40.5 µM; in [8], more than 100 µM; in [10] it was more than 100 µM. For the same molecule, in assay [9], the TGI was more than 100 µM.

Regarding `O=C(n1c2ccccc2c2n[nH]c(=S)nc21)C(F)(F)F`, the TGI in [1], in assay [2], in [3], in assay [5], in assay [6] and in [7] was more than 100 µM each time. Also, the TGI in assay [8] and in assay [9] was more than 100 µM each time.

For `CC(C)(C)C1=CC(=N/N=c2\scc(-c3ccccc3)n2Cc2ccccc2)C=C(C(C)(C)C)C1=O`, the TGI in assay [1], in assay [2], in assay [3], in [5], in assay [6] and in assay [7] was more than 100 µM throughout. For the same molecule, the TGI in assay [8] is more than 100 µM.

Take `CCN(CC)CCC(=O)/C=C/c1ccc(Cl)c(Cl)c1`: the TGI in assay [2] is more than 10 µM; in assay [3], more than 10 µM; in assay [4] it was 0.603 µM; in assay [5], 3.74 µM; in assay [6], 5.63 µM; in assay [8], more than 10 µM. For the same molecule, the TGI in assay [10] turned out to be 5.86 µM; in assay [9], 3.54 µM.

With `Cc1c(C)c2cc3c(=O)c(CCl)coc3c(C)c2oc1=O`, the TGI in assay [2], in assay [3], in assay [4], in assay [5], in [6] and in [7] was more than 100 µM each time. For the same molecule, the TGI in assay [8] and in assay [9] was more than 100 µM in each case.

Regarding `COCN1COCN(C)C1=O`, the TGI in [1], in [2], in assay [3], in assay [4], in assay [5] and in [6] was more than 100 µM each time. Further, the TGI in [7] and in [8] was more than 100 µM throughout.

As for `CCOC(=O)c1ccc(N=Cc2ccc(N(CCC#N)S(=O)(=O)c3ccccc3)cc2C)cc1`, the TGI in [1], in assay [2], in [3], in assay [4], in assay [5] and in [6] was more than 100 µM in each case. The TGI in assay [7], in [8] and in [9] was more than 100 µM in each case.

On to `O=c1[nH]c2nc3ccccc3c(=O)n2nc1Cc1ccccc1`, for which the TGI in assay [1], in assay [2], in assay [3], in [4], in assay [5] and in assay [6] was more than 100 µM in each case. In addition, the TGI in assay [7], in [8] and in assay [9] was more than 100 µM each time.

Take `CC(=O)/C=C1\CC(=O)N(C)c2ccccc2N1`: the TGI in assay [1], in [2], in assay [3], in assay [5], in assay [6] and in [7] was more than 100 µM throughout. Besides, the TGI in assay [8] and in assay [9] was more than 100 µM throughout.

Turning to `CCCCC[C@@H]1CCCC2NC(CCCCCO[Si](c3ccccc3)(c3ccccc3)C(C)(C)C)CCC21` (stereo partly drawn), the TGI in assay [1] amounted to 16.1 µM; in assay [2], 27.3 µM; in [3] it was 36.9 µM; in [4], 22.2 µM; in [5], 23.7 µM; in assay [6], 31.6 µM. In addition, the TGI in assay [7] came to 29.8 µM; in [8] it was 34.8 µM; in assay [9], 31.6 µM.

In the case of `COc1ccc2c(c1OC)C(=O)C2`, the TGI in assay [1], in assay [2], in assay [3], in assay [4], in assay [5] and in [6] was more than 100 µM each time. The TGI in assay [9] was more than 100 µM.

As to `CN(C)CCNC(=O)c1ccc2c(c1)oc1cc3ccccc3c(=O)n12`, the GI50 in assay [1] is 18.1 µM; in assay [2] it was 18.6 µM; in assay [3], 23.4 µM; in assay [4] it was 31 µM; in [5] it was 16 µM; in assay [6], 15.5 µM. The TGI in [1] was 40.4 µM; in assay [2] it was 32.6 µM; in assay [3] it was 43.7 µM; in assay [4], more than 100 µM; in assay [5], 29.4 µM; in assay [6], 31.7 µM.

As to `O=C(c1ccccc1)c1nc2c(Cl)ccc(Cl)c2cc1C(Br)Br`, the TGI was determined as 2.89 µM in assay [2]; 5.66 µM in assay [3]; 2.2 µM in assay [4]; 1.56 µM in assay [5]; 1.19 µM in assay [6]; 1.76 µM in [7]. The TGI in assay [8] stood at 2.29 µM; in [9], 2.9 µM.

As for `O=C(NCCCN1CCN(CCCNC(=O)c2cccc3ccccc23)CC1)c1cccc2ccccc12`, the TGI in [1], in assay [2], in [3], in assay [4], in assay [5] and in assay [6] was more than 100 µM throughout. For the same molecule, the TGI in [7] and in assay [8] was more than 100 µM in each case.

Turning to `CN(C)CCCNc1ccnc2c([N+](=O)[O-])cccc12`, the TGI in assay [1] was 12.1 µM; in [2] it was more than 100 µM; in assay [3] it was 8.61 µM; in [4] it was 69.4 µM; in [5], 39.1 µM; in assay [6], 37.1 µM. The TGI in [7] was 44.5 µM; in [9], 38.2 µM.

In the case of `COc1ccc(C2=C(OC(C)=O)c3cccn3-c3ccc(Cl)cc3S2)cc1`, the TGI is more than 10 µM in assay [1]; more than 10 µM in assay [2]; more than 10 µM in assay [3]; 6.21 µM in assay [4]; more than 10 µM in assay [6]; more than 10 µM in assay [10].

For `CC1=CC(=O)NP(=O)(Oc2ccc(Cl)cc2)N1` (stereo not drawn), the TGI in [1], in assay [2], in [3], in assay [4], in [5] and in assay [6] was more than 100 µM throughout. For the same molecule, the TGI in [7], in assay [8] and in assay [9] was more than 100 µM each time.

On to `Cc1cccc(NC(=O)c2c(N)[n+]([O-])c3ccccc3[n+]2[O-])c1`, for which the TGI in assay [1] is 27.7 µM; in assay [2] it was 24.9 µM; in assay [3], 27.1 µM; in assay [5] it was 20.3 µM; in [6] it was 21.4 µM; in assay [7], 16.4 µM. Besides, the TGI in assay [8] came to 42.3 µM; in assay [9], 20 µM.

`COc1ccc2nc3cc(Cl)ccc3c(Sc3ccc(N)cc3)c2c1`: the TGI in [2] stood at 22 µM; in [3], 30.1 µM; in assay [5], 17.3 µM; in [6], 12.8 µM; in [7], 27.9 µM; in [8], 34.8 µM. This molecule returned a TGI in [9] of 16.2 µM.

As to `C=CC[P@]1(=O)O[C@H](c2ccccc2)C(C)N1C(C)C` (stereo partly drawn), the TGI in [1], in assay [2], in assay [3], in assay [4], in assay [5] and in assay [6] was more than 100 µM each time. Also, the TGI in assay [7], in [8] and in assay [9] was more than 100 µM throughout.

Turning to `COc1ccc(CCN2CCCn3c2nc2ccccc2c3=O)cc1`, the GI50 in assay [1] is 0.0365 µM; in [2] it was 0.0463 µM; in assay [3], 0.0538 µM; in [4], 0.353 µM; in assay [5] it was 0.0493 µM; in [6], 0.0508 µM. The GI50 in [7] was 0.0876 µM; in assay [8], 0.95 µM; in assay [9] it was 0.035 µM. For the same molecule, the TGI was more than 28.4 µM in [1]; more than 100 µM in [2]; more than 100 µM in assay [3]; more than 100 µM in assay [4]; more than 100 µM in assay [5]; more than 100 µM in [6]. Moreover, the TGI in [7] was 0.432 µM; in [8] it was more than 100 µM; in [9], 1.14 µM.

`C=CCCC(O)c1cc(C)c(O)c(C)c1` (stereo not drawn): the TGI in [2], in assay [3], in assay [4], in assay [6], in assay [7] and in assay [8] was more than 100 µM throughout. In assay [9], this molecule gave a TGI of more than 100 µM.

Take `COc1ccccc1/C=C1\C(=O)N(C(=O)Cc2ccccc2)N=C1C`: the TGI in [1], in [2], in [3], in [4], in assay [5] and in [6] was more than 100 µM throughout. Further, the TGI in assay [7], in assay [8] and in [9] was more than 100 µM each time.

The record behind these values is PubChem BioAssay (NCI).
